Experimental data as given in US11970497B2, “Tricyclic AKR1C3 dependent KARS inhibitors” (Novartis AG, priority 2019, dated 2024).

Key:
Type in all cases: cell-based
[1] = system: H460 (NRF2 pathway mutant cell line with high AKR1C3 expression); assay: In vitro cell proliferation assay (CellTiter-Glo), H460; conditions: Homo sapiens, NCI-H460, 72 h; H460 cells, 3 days, CellTiter-Glo, top concentration 10 μM; read-out: H460 Qualified absolute AC50
In short: (§1)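 Luminescent CellTiter-Glo readout after 3-day compound exposure at 37 °C; 8-point 1:5 series, top 10 μM final. Seeding: 800 cells/well for H460, 2000 cells/well for Hara, RPMI-1640 plus 10% FBS. AC50 and percentage activity derived after normalizing to DMSO (1%) and MG132 (30 μM) controls.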

[2] = system: Hara (NRF2 pathway wild type cell line with low AKR1C3 expression); assay: In vitro cell proliferation assay (CellTiter-Glo), Hara; conditions: 72 h; Hara cells, 3 days, CellTiter-Glo, top concentration 10 μM; read-out: HARA Qualified absolute AC50
In short: as §1

CORL-279 = assay: Expanded lung cancer cell line proliferation assay; conditions: Homo sapiens, COR-L279; CORL-279, 72 h, average of PrestoBlue and Cell Titer Glo; AKR1C3 3.6 TPM; read-out: Absolute Qualified AC50
Description: (§2) Cellular Proliferation Assay to Assess Compound Activity in an Expanded Panel of 57 NRF2 Pathway Mutant and Wild Type Lung Cancer Cell Lines.
(§3) Both the PrestoBlue Cell Viability Reagent and Cell Titer Glo were multiplexed together as the final assay readout. PrestoBlue is a cell permeable resazurin-based solution that utilizes the reducing power of living cells to quantitatively measure their proliferation. Cell Titer Glo measures the amount of ATP present, an indicator of metabolically active cells.
(§4) Expanded Lung Cancer Cell Line Proliferation Assay Outline, Analysis and Profiling Results
(§5) Cells were seeded into 384 well assay plates (Greiner Bio-One, Catalog #781080) using the Thermo Scientific Matrix WellMate microplate dispenser and Thermo Scientific Matrix WellMate small bore disposable tubing cartridges (Catalog #201-30002) in 30 μl of growth media (RPMI-1640 supplemented with 10% fetal bovine serum and 1% penicillin/streptomycin) per well (1000 to 2000 cells/well depending on doubling time). Following cell plating, assay plates were placed into tissue culture incubator at 37° C./5% CO2 overnight. The next day one assay plate for each cell line was used for a Day 0 Cell Titer Glo and PrestoBlue readout. 3 μl of PrestoBlue Cell Viability Reagent (Thermo Scientific, Catalog #A13262) was added to each well and then assay plates were incubated at 37° C./5% CO2 for 30 minutes prior to fluorescence readout on the EnVision 2105 multimode plate reader (Perkin Elmer). Following the PrestoBlue readout 18 μl of Cell Titer Glo (Promega, Catalog #G7572) was then added to each well, allowing plates to incubate at room temperature for 10 minutes prior to luminescence readout on the EnVision. Compound was then added to the remaining assay plates (each cell line run in triplicates) using the Labcyte Inc Echo 555 acoustic liquid handler. Compounds were arrayed into a Labcyte Inc Echo qualified 384 well LDV microplate (Cat #LP-0200-GNF10). Compounds were serially diluted 1:3.16 to generate an 8 point dose response for a final top concentration of 1 μM. DMSO (0.3%) was used as the neutral control (NC) and MG132 (30 μM) was used as the active control (AC). 90 nl of compounds were added to 30 μl of cells using the Labcyte Inc Echo 555 acoustic liquid handler for a final DMSO assay concentration of 0.3%. Following compound addition, assay plates were spun down in a tabletop centrifuge at 500 rpm for 1 minute and then placed into tissue culture incubator at 37° C./5% CO2 for 72 h. Following the 72 h incubation, all assay plates were readout using PrestoBlue and Cell Titer Glo using the same conditions previously described for the Day 0 readout. The Day 0 readout (untreated cells) was used to compare to the 72 h DMSO treated samples on each assay plate as a way of tracking each cell line's fold growth. NC1 control based normalization was used for data analysis in Helios, which incorporates the DMSO neutral control (NC) and MG132 active control (AC) for generating dose response curves that are then used to calculate the Absolute Qualified AC50 calls for each compound and cell line.
(§6) NC1 normalization calculation model: NC1: xn=±(x−NC)/(AC−NC)
(§7) +/− is set by the inhibition type parameter setting where NC and AC are averages (mean or median) over the corresponding NC and AC well values. The Qualified Absolute AC50 values for Compound 36 and Compound 40 are listed in the table below and are represented as the average activity in both the PrestoBlue and Cell Titer Glo assay readouts.
(§8) Absolute Qualified AC50 Values Listed Below are a Representation of Each Compounds' Average Activity in Both the PrestoBlue and Cell Titer Glo Assay Readouts.

EBC-1 = assay: Expanded lung cancer cell line proliferation assay; conditions: Homo sapiens; EBC-1, 72 h, average of PrestoBlue and Cell Titer Glo; AKR1C3 92.4 TPM; read-out: Absolute Qualified AC50
Description: as §2, §3, §4, §5, §6, §7, §8

HCC78 = assay: Expanded lung cancer cell line proliferation assay; conditions: Homo sapiens; HCC78, 72 h, average of PrestoBlue and Cell Titer Glo; AKR1C3 3 TPM; read-out: Absolute Qualified AC50
Description: as §2, §3, §4, §5, §6, §7, §8

NCI-H1573 = assay: Expanded lung cancer cell line proliferation assay; conditions: Homo sapiens; NCI-H1573, 72 h, average of PrestoBlue and Cell Titer Glo; AKR1C3 306.2 TPM; read-out: Absolute Qualified AC50
Description: as §2, §3, §4, §5, §6, §7, §8

NCI-H2030 = assay: Expanded lung cancer cell line proliferation assay; conditions: Homo sapiens; NCI-H2030, 72 h, average of PrestoBlue and Cell Titer Glo; AKR1C3 232.7 TPM; read-out: Absolute Qualified AC50
Description: as §2, §3, §4, §5, §6, §7, §8

NCI-H2286 = assay: Expanded lung cancer cell line proliferation assay; conditions: Homo sapiens; NCI-H2286, 72 h, average of PrestoBlue and Cell Titer Glo; AKR1C3 0.9 TPM; read-out: Absolute Qualified AC50
Description: as §2, §3, §4, §5, §6, §7, §8

## CN1c2ccc(F)cc2C(=O)CC12CCN(C(=O)NCc1ccc(F)c(NCCO)c1)CC2 [Example 36, 6′-fluoro-N-(4-fluoro-3-((2-hydroxyethyl)amino)benzyl)-1′-methyl-4′-oxo-3′,4′-dihydro-1′H-spiro[piperidine-4,2′-quinoline]-1-carboxamide]
[1]
  AC50: 78 nM
[2]
  AC50: 1560 nM
CORL-279
  AC50: > 1000 nM
EBC-1
  AC50: > 1000 nM
HCC78
  AC50: > 1000 nM
NCI-H1573
  AC50: 946 nM
NCI-H2030
  AC50: 648 nM
NCI-H2286
  AC50: > 1000 nM

## O=C1CC2(CCN(C(=O)NCc3ccc(F)cc3)CC2)Nc2ccc(F)cc21 [Example 40]
[1]
  AC50: 83 nM
[2]
  AC50: 1790 nM
CORL-279
  AC50: > 1000 nM
EBC-1
  AC50: > 1000 nM
HCC78
  AC50: > 1000 nM
NCI-H1573
  AC50: 293 nM
NCI-H2030
  AC50: 364 nM
NCI-H2286
  AC50: > 1000 nM
